Here are results for 5 molecules from the supplement of paper PMC10307832.

The first assay concerns ABC-1. The assay can be described thus: relative viability (nuclei count vs DMSO), 5 days (fraction); higher = more cells survive. The conditions noted are these: first compound 6.325 µM. The gist of the method: (§1)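 Lung cancer cell lines in 1536-well plates were dosed by pin tool the day after seeding, either with one drug alone or with a fixed anchor-drug dose plus five library-drug doses (not always all listed) in √10 steps. After 5 days, cells were fixed and their nuclei stained in one step (final 0.05% Triton X-100, 1% formaldehyde, 1 ug/ml Hoechst), then counted on 4× images. Relative viability is the nuclei count in treated wells divided by that in vehicle wells. Values are medians of duplicate plates.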
As to `COCC1(CO)C(=O)C2CCN1CC2` (configuration not stated) [PRIMA-1MET] + Cc1cc(Nc2cc(N3CCN(C)CC3)nc(Sc3ccc(NC(=O)C4CC4)cc3)n2)n[nH]1 [Tozasertib] (partner 0.1 µM), the relative viability was 0.145.
In turn, `COCC1(CO)C(=O)C2CCN1CC2` (configuration not stated) [PRIMA-1MET] + Cc1nc(NC(=O)N2CCC[C@H]2C(N)=O)sc1-c1ccnc(C(C)(C)C(F)(F)F)c1 [Alpelisib] (partner 2 µM) yielded a relative viability of 1.04.
Turning to `COCC1(CO)C(=O)C2CCN1CC2` (configuration not stated) [PRIMA-1MET] + C[C@@H](Oc1cc(-c2cnn(C3CCNCC3)c2)cnc1N)c1c(Cl)ccc(F)c1Cl [Crizotinib] (partner 1 µM), the relative viability turned out to be 0.908.

The assay is the same for the next values; noted with them: first compound 20 µM.
As to `COCC1(CO)C(=O)C2CCN1CC2` (configuration not stated) [PRIMA-1MET] + O=C(CCCCCCC(=O)Nc1ccccc1)NO [Vorinostat] (partner 1 µM), the relative viability worked out at 0.262.
On the same count and under the same terms, with `COCC1(CO)C(=O)C2CCN1CC2` (configuration not stated) [PRIMA-1MET] + C[C@]1(O)C[C@@H](c2nc(-c3ccc4ccc(-c5ccccc5)nc4c3)c3c(N)nccn32)C1 [Linsitinib] (partner 1 µM) the figure was 0.519; with `COCC1(CO)C(=O)C2CCN1CC2` (configuration not stated) [PRIMA-1MET] + Cc1cc(Nc2cc(N3CCN(C)CC3)nc(Sc3ccc(NC(=O)C4CC4)cc3)n2)n[nH]1 [Tozasertib] (partner 0.1 µM), 0.259; with `COCC1(CO)C(=O)C2CCN1CC2` (configuration not stated) [PRIMA-1MET] + Cc1nc(NC(=O)N2CCC[C@H]2C(N)=O)sc1-c1ccnc(C(C)(C)C(F)(F)F)c1 [Alpelisib] (partner 2 µM), 0.479.
Still for that read-out and setting: with `COCC1(CO)C(=O)C2CCN1CC2` (configuration not stated) [PRIMA-1MET] + C[C@@H](Oc1cc(-c2cnn(C3CCNCC3)c2)cnc1N)c1c(Cl)ccc(F)c1Cl [Crizotinib] (partner 1 µM) the figure was 0.555.

In another assay the test system is LK-2. The assay is described as above. The conditions noted are these: first compound 0.2 µM. The gist of the method: as §1
Molecule `COCC1(CO)C(=O)C2CCN1CC2` (configuration not stated) [PRIMA-1MET] + O=C(CCCCCCC(=O)Nc1ccccc1)NO [Vorinostat] (partner 1 µM) showed a relative viability of 0.181.
`COCC1(CO)C(=O)C2CCN1CC2` (configuration not stated) [PRIMA-1MET] + C[C@]1(O)C[C@@H](c2nc(-c3ccc4ccc(-c5ccccc5)nc4c3)c3c(N)nccn32)C1 [Linsitinib] (partner 1 µM) showed a relative viability of 0.624.
Same read-out and setting: then `COCC1(CO)C(=O)C2CCN1CC2` (configuration not stated) [PRIMA-1MET] + Cc1cc(Nc2cc(N3CCN(C)CC3)nc(Sc3ccc(NC(=O)C4CC4)cc3)n2)n[nH]1 [Tozasertib] (partner 0.1 µM), with 0.189; and `COCC1(CO)C(=O)C2CCN1CC2` (configuration not stated) [PRIMA-1MET] + Cc1nc(NC(=O)N2CCC[C@H]2C(N)=O)sc1-c1ccnc(C(C)(C)C(F)(F)F)c1 [Alpelisib] (partner 2 µM), with 1.22.
The same measure, in the same setting: with `COCC1(CO)C(=O)C2CCN1CC2` (configuration not stated) [PRIMA-1MET] + C[C@@H](Oc1cc(-c2cnn(C3CCNCC3)c2)cnc1N)c1c(Cl)ccc(F)c1Cl [Crizotinib] (partner 1 µM) the figure was 0.221.

The same assay, now with this note: first compound 0.6325 µM.
The molecule `COCC1(CO)C(=O)C2CCN1CC2` (configuration not stated) [PRIMA-1MET] + O=C(CCCCCCC(=O)Nc1ccccc1)NO [Vorinostat] (partner 1 µM) yielded a relative viability of 0.255.
Still for that read-out and setting: with `COCC1(CO)C(=O)C2CCN1CC2` (configuration not stated) [PRIMA-1MET] + C[C@]1(O)C[C@@H](c2nc(-c3ccc4ccc(-c5ccccc5)nc4c3)c3c(N)nccn32)C1 [Linsitinib] (partner 1 µM) the figure was 0.554.
`COCC1(CO)C(=O)C2CCN1CC2` (configuration not stated) [PRIMA-1MET] + Cc1cc(Nc2cc(N3CCN(C)CC3)nc(Sc3ccc(NC(=O)C4CC4)cc3)n2)n[nH]1 [Tozasertib] (partner 0.1 µM) gave a relative viability of 0.177.
Same read-out and setting: with `COCC1(CO)C(=O)C2CCN1CC2` (configuration not stated) [PRIMA-1MET] + Cc1nc(NC(=O)N2CCC[C@H]2C(N)=O)sc1-c1ccnc(C(C)(C)C(F)(F)F)c1 [Alpelisib] (partner 2 µM) the figure was 0.868.
Same read-out and setting: then `COCC1(CO)C(=O)C2CCN1CC2` (configuration not stated) [PRIMA-1MET] + C[C@@H](Oc1cc(-c2cnn(C3CCNCC3)c2)cnc1N)c1c(Cl)ccc(F)c1Cl [Crizotinib] (partner 1 µM), with 0.182.

The assay is the same for the next values; noted with them: first compound 2 µM.
`COCC1(CO)C(=O)C2CCN1CC2` (configuration not stated) [PRIMA-1MET] + O=C(CCCCCCC(=O)Nc1ccccc1)NO [Vorinostat] (partner 1 µM) yielded a relative viability of 0.166.
On the same count and under the same terms, with `COCC1(CO)C(=O)C2CCN1CC2` (configuration not stated) [PRIMA-1MET] + C[C@]1(O)C[C@@H](c2nc(-c3ccc4ccc(-c5ccccc5)nc4c3)c3c(N)nccn32)C1 [Linsitinib] (partner 1 µM) the figure was 0.237.
In turn, `COCC1(CO)C(=O)C2CCN1CC2` (configuration not stated) [PRIMA-1MET] + Cc1cc(Nc2cc(N3CCN(C)CC3)nc(Sc3ccc(NC(=O)C4CC4)cc3)n2)n[nH]1 [Tozasertib] (partner 0.1 µM) yielded a relative viability of 0.144.
Same read-out and setting: with `COCC1(CO)C(=O)C2CCN1CC2` (configuration not stated) [PRIMA-1MET] + Cc1nc(NC(=O)N2CCC[C@H]2C(N)=O)sc1-c1ccnc(C(C)(C)C(F)(F)F)c1 [Alpelisib] (partner 2 µM) the figure was 0.577.
As to `COCC1(CO)C(=O)C2CCN1CC2` (configuration not stated) [PRIMA-1MET] + C[C@@H](Oc1cc(-c2cnn(C3CCNCC3)c2)cnc1N)c1c(Cl)ccc(F)c1Cl [Crizotinib] (partner 1 µM), the relative viability amounted to 0.22.

The assay is the same for the next values; noted with them: first compound 6.325 µM.
`COCC1(CO)C(=O)C2CCN1CC2` (configuration not stated) [PRIMA-1MET] + O=C(CCCCCCC(=O)Nc1ccccc1)NO [Vorinostat] (partner 1 µM) returned a relative viability of 0.325.
On the same count and under the same terms, with `COCC1(CO)C(=O)C2CCN1CC2` (configuration not stated) [PRIMA-1MET] + C[C@]1(O)C[C@@H](c2nc(-c3ccc4ccc(-c5ccccc5)nc4c3)c3c(N)nccn32)C1 [Linsitinib] (partner 1 µM) the figure was 0.224; with `COCC1(CO)C(=O)C2CCN1CC2` (configuration not stated) [PRIMA-1MET] + Cc1cc(Nc2cc(N3CCN(C)CC3)nc(Sc3ccc(NC(=O)C4CC4)cc3)n2)n[nH]1 [Tozasertib] (partner 0.1 µM), 0.161.
`COCC1(CO)C(=O)C2CCN1CC2` (configuration not stated) [PRIMA-1MET] + Cc1nc(NC(=O)N2CCC[C@H]2C(N)=O)sc1-c1ccnc(C(C)(C)C(F)(F)F)c1 [Alpelisib] (partner 2 µM) had a relative viability of 0.626.
In turn, `COCC1(CO)C(=O)C2CCN1CC2` (configuration not stated) [PRIMA-1MET] + C[C@@H](Oc1cc(-c2cnn(C3CCNCC3)c2)cnc1N)c1c(Cl)ccc(F)c1Cl [Crizotinib] (partner 1 µM) gave a relative viability of 0.255.

Staying with this assay, now noted: first compound 20 µM.
With `COCC1(CO)C(=O)C2CCN1CC2` (configuration not stated) [PRIMA-1MET] + O=C(CCCCCCC(=O)Nc1ccccc1)NO [Vorinostat] (partner 1 µM), the relative viability was found to be 0.0975.
With `COCC1(CO)C(=O)C2CCN1CC2` (configuration not stated) [PRIMA-1MET] + C[C@]1(O)C[C@@H](c2nc(-c3ccc4ccc(-c5ccccc5)nc4c3)c3c(N)nccn32)C1 [Linsitinib] (partner 1 µM), the relative viability was found to be 0.103.
In the case of `COCC1(CO)C(=O)C2CCN1CC2` (configuration not stated) [PRIMA-1MET] + Cc1cc(Nc2cc(N3CCN(C)CC3)nc(Sc3ccc(NC(=O)C4CC4)cc3)n2)n[nH]1 [Tozasertib] (partner 0.1 µM), the relative viability stood at 0.132.
Still for that read-out and setting: with `COCC1(CO)C(=O)C2CCN1CC2` (configuration not stated) [PRIMA-1MET] + Cc1nc(NC(=O)N2CCC[C@H]2C(N)=O)sc1-c1ccnc(C(C)(C)C(F)(F)F)c1 [Alpelisib] (partner 2 µM) the figure was 0.162.
